Here are results for 9 compounds from patent US5091187A, “Phospholipid-coated microcrystals: injectable formulations of water-insoluble drugs” (priority 1991, dated 1992).

In brackets after ≈: the same amount, converted by molar mass. Where a name gives a salt, the structure may show the parent alone.

In one data set the test system is surgical wounds. To be noted: crystals sprinkled into surgical wounds; cited from earlier work.
A further data set concerns human skin. The experiment in a line: Pin prick anesthesia after intradermal injection, human self-experimentation. The settings on record: in vivo. The protocol: The Inventor carried out self-experimentation with Preparation B. I made two intradermal injections of 0.15 ml of Preparation B into the skin of my calf, right leg, inside, at sites 12 cm and 22 cm below the knee. The injections raised weals approx. 1.1 cm in diameter. […] The weals subsided within ca. 30 sec. The injected sites were tested for pin prick and cold stimulus anesthesia for the next 24 hr.
As a control for the above, I injected myself with 0.15 ml volumes of solutions of 1%, 2% and 5% tetracaine-H-Cl. In attempt to make the concentrated solutions less damaging, the pH was adjusted from 5.3 to 6.5. Physiological tonicity was maintained by including glucose (4.3%, 3.2% and 0%, respectively). […] The 1% and 2% tetracaine-H-Cl solutions produced only mild erthrema, with return to normal color when the anesthesia subsided. […] The presented anesthesia values were taken at its periphery. […] This poor outcome with the 5% (w/v) tetracaine solution is in stark contrast to the excellent results obtained with the 20% (w/v) tetracaine-H-I microcrystal.

For data set [1] the following is noted: water.
The next data set deals with injected muscle. The data set can be described thus: IM injection of albendazole sulfoxide preparations in rats. Type of data set: in vivo, rat. The settings on record: versus albendazole. The method, then: The above experimentation was repeated with albendazole sulfoxide, a more water-soluble analogue of the drug. […] Solubility data for albendazole sulfoxide are: 0.42 mg/ml in water, 17.7 mg/ml in propylene glycol and 179.0 mg/ml in ethanol. […] Both preparations normally settled to albendazole sulfoxide concentrations of 20% (w/v). Samples (0.1 ml) of both preparations were injected IM in rats (n=6) and the muscles were examined at necropsy, 2 days post-injection. […] Propylene glycol, which has two OH groups and a dielectric constant of 32, is an example of a polar organic compound which can be substituted for water.

The nature of data set [2]: pKa and oil/water partition of indomethacin. In kind it is physicochemical.
For data set [3] the following is noted: IV injection; cited from earlier work.

Take `CCCCNc1ccc(C(=O)OCCN(C)C)cc1` [hydroiodic acid (HI) salt of tetracaine, tetracaine-H-I]: the “duration of local anesthesia” value with surgical wounds was 45 h. Further, the “extension of duration of action” value in the data set with human skin is on record as 5 -fold.
As to `O=C1CN(/N=C/c2ccc(-c3ccc([N+](=O)[O-])cc3)o2)C(O)=N1` [Dantrolene], the “dissolution in organic solvents” value in the data set “Solubility” (7.9 mg in mineral oil, n-dibutyl ether, methoxyflurane) is “did not dissolve”.
`CN(C)[C@@H]1C(=O)C(C(N)=O)=C(O)[C@@]2(O)C(=O)C3=C(O)c4c(O)cccc4[C@@](C)(O)[C@H]3[C@H](O)[C@@H]12` [oxytetracycline] returned an aqueous solubility in data set [1] of 1.1 mg/mL (≈ 2390 µM).
For the compound `CCC[S+]([O-])c1ccc2[nH]c(NC(=O)OC)nc2c1` (stereo not shown) [albendazole sulfoxide], the “rate of absorption into the blood” value in the data set on injected muscle is “Faster rates of absorption into the blood”. The solubility stood at 179000 µg/mL (≈ 636000 µM) in the data set “physchem” (ethanol, organic solvent or mixture, solubility, in ethanol); 17700 µg/mL (≈ 62900 µM) in “physchem” (propylene glycol, organic solvent or mixture, solubility, in propylene glycol); 420 µg/mL (≈ 1490 µM) in “physchem” (water, aqueous solubility).
Consider `COc1ccc2c(c1)c(CC(=O)O)c(C)n2C(=O)c1ccc(Cl)cc1` [Indomethacin], for which the solubility in the data set “Solubility” (pH 9.6) was 30 mg/mL (≈ 83800 µM); in the data set “Solubility” (water, pH 7, water) it was 0.376 mg/mL (≈ 1050 µM). Also, the values for the oil/water partition coefficient in data set [2] (olive oil/water) and in data set [2] (pentanol/water) were 55/1 and 85/1, respectively.
As for `CCCC(C)C1(CC)C(=O)NC(=S)NC1=O` (stereo not shown) [thiopental], in data set [3], the listed adverse reactions entry is “venous thrombosis or phlebitis extending from the site of injection”.
In “physchem” (water, aqueous solubility), `CN(C)[C@@H]1C(=O)C(C(N)=O)=C(O)[C@@]2(O)C(=O)C3=C(O)c4c(O)cccc4[C@@](C)(O)[C@H]3[C@H](O)[C@@H]12` [OTC, oxytetracycline] registered a solubility of roughly 1000 µg/mL (≈ 2170 µM).
On the same count and under the same terms, for `CCCSc1ccc2nc(NC(=O)OC)[nH]c2c1` [albendazole] the value was less than 100 µg/mL.
In “physchem” (water), `CC[C@H]1OC(=O)[C@H](C)[C@@H](O[C@H]2C[C@@](C)(OC)[C@@H](O)[C@H](C)O2)[C@H](C)[C@@H](O[C@@H]2O[C@H](C)C[C@H](N(C)C)[C@H]2O)[C@](C)(O)C[C@@H](C)C(=O)[C@H](C)[C@@H](O)[C@]1(C)O` [erythromycin] gave a solubility of 2000 µg/mL (≈ 2730 µM).

One may read the aqueous solubility as the dissolved amount per volume that the medium holds. A lower aqueous solubility goes with a poorly soluble substance. As usually defined, the solubility is the dissolved amount per volume that the medium holds.
